# Earlier results as cited in patent publication US20050201989A1, “Compositions and methods for ex vivo preservation of blood vessels for vascular grafts using inhibitors of tumor necrosis factor-alpha” (St. Camillus Medical, Inc., priority 2004, published 2005).
# Test system: endothelial cells
# Details: general knowledge statement, no test described
structure (smiles),measurement,value
"CCCC(=O)Nc1ncnc2c1ncn2[C@@H]1O[C@@H]2COP(=O)(O)O[C@H]2[C@H]1OC(=O)CCC [db cAMP, dibutyryl adenosine 3′,5′-cyclic monophosphate]",db cAMP concentration that becomes toxic to endothelial cells,higher than 4 mM
